Results on 1 molecule are retold here after US20040235920A1, “Novel use of substituted aminomethyl chromans for the treatment of movement disorders and of adverse effects induced by drugs administered to treat extrapyramidal movement disorders” (priority 2001, published 2004).

The test system of one assay is 3-NP treated rats. The assay can be described thus: Systemic 3-nitropropionic acid (3-NP) model in rats, nocturnal activity. It counts as in vivo, rat. How it is done: A typical animal model is the systemic 3-nitropropionic acid (3-NP) model in rats according to C. V. Borlongan et al., Brain Res., 1995; 697: 254-257. Rats are treated with injections of the selective striatal neurotoxin 3-NP i.p. every fourth day (C. V. Borlongan et al., Brain Res. Protocols, 1997; 1: 253-257). After two injections of 3-NP, rats display nocturnal hyperactivity reflecting symptoms of early Huntington's disease, whereas rats treated with four injections of 3-NP display nocturnal akinesia (hypoactivity) reflecting symptoms of late Huntington's disease. Nocturnal activity is automatically measured in conventional acitivity cages by infrared beams. (−)-(R)-2-{4-[[3,4-dihydro-2H-benzopyran-2-yl)-methyl]amino]butyl}-1,2-benzoisothiazol-3-(2H)-on-1,1-dioxide or a pharmaceutical acceptable salt thereof reduced both the nocturnal hyperactivity and akinesia.

Assay [1] concerns rats challenged with haloperidol. The assay can be described thus: Neuroleptics-induced muscle rigidity in rats (haloperidol). It counts as in vivo, rat. Conditions: resistance to passive flexion and extension of the hind limb. From the text:
A typical animal model is neuroleptics-induced muscle rigidity in rats according to S. Wolfarth et al., Arch. Pharmacol. 1992; 345: 209-212. Rats are challenged with the conventional neuroleptic drug haloperidol which enhances muscle tone. Muscle tone is electromechanically measured as the resistence to passive flexion and extension of the hind limb. (−)-(R)-2-{4-[[3,4-dihydro-2H-benzopyran-2-yl)-methyl]amino]butyl}-1,2-benzoisothiazol-3-(2H)-on-1,1-dioxide or a pharmaceutically acceptable salt thereof decreased the muscle tone enhanced by haloperidol.

A further assay relates to Weaver mutant mouse. The assay can be described thus: Weaver mutant mouse, locomotor activity. The note with it: activity cages. It counts as in vivo. An excerpt: (§1) Typical genetic models in mutant animals are the Campus Syndrome in the Pietrain pig according to A. Richter et al. (Exp. Neurology, 1995; 134: 205-213) or the Weaver mutant mouse according to J. R. Simon and B. Ghetti (Mol. Neurobiol., 1994; 9: 183-189). In the Campus Syndrome model, these mutant pigs show a high-frequency tremor when standing and during locomotion, but not while lying at rest. Assessment of tremor is made by accelerometric recording. In the Weaver mutant mouse, degenerative cerebellar atrophy is found in association with tremor, gait instability, and toppling over the sides after a few steps.

The test system of assay [2] is Parkinsonian cynomolgus monkey. The assay can be described thus: MPTP Parkinsonian cynomolgus monkey chronically treated with l-dopa (Abnormal Involuntary Movement Scale, rating for psychotic states). It is filed as in vivo. Conditions: MPTP monkeys, long-term l-dopa. How it is done:
Treatment of adverse effects of conventional anti-Parkinsonian drugs as defined above are determined in a modification of the animal model of the Parkinsonian cynomolgus monkey according to P. J. Blanchet et al., Exp. Neurology 1998; 153: 214-222. Monkeys render parkinsonian by repeated injections of 1-methyl-4-phenyl-1,2,3,6-tetrahydropyridine (MPTP). The Parkinsonian monkeys are chronically treated with the standard l-dopa therapy according to P. J. Blanchet et al., Mov. Disord., 1998; 13: 798-802. Longterm treatment with l-dopa induces extrapyramidal motor side effects and psychotic states which are both qualitatively and quantitatively, assessed by the Abnormal Involuntary Movement Scale (P. J. Blanchet et al., Mov. Disord. 1998; 13: 798-802) for different body parts (face, neck, trunk, each limb) and by rating for psychotic states by observing the monkey's attention, reactivity and mobility. (−)-(R)-2-{4-[[3,4-dihydro-2H-benzopyran-2-yl)-methyl]amino]butyl}-1,2-benzoisothiazol-3-(2H)-on-1,1-dioxide reduced overall choreiform dyskinesias and dystonic dyskinesias as well as psychotic states.

In a further assay the test system is Pietrain pig. The assay can be described thus: Campus Syndrome in the Pietrain pig, tremor. It is filed as in vivo. Conditions: when standing and during locomotion.
Text: as §1

In the next assay the test system is mutant dystonic hamster. Put plainly: Mutant dystonic hamster, scoring of dystonic attacks. The note with it: scoring system. It counts as in vivo. An excerpt:
A typical animal model is the mutant dystonic hamster according to A. Richter and W. Löscher, Prog. Neurobiol. 1998; 54: 633-677. In this genetically dystonic hamsters, dystonic attacks are provoked by taking the animal from the home cage and placing it on a balance. The dystonic syndrome consists of a sequence of abnormal movements, and the severity of the single symptoms is rated by a scoring system.

In assay [3] the test system is rat with nigrostriatal degeneration. The assay can be described thus: Striatonigral degeneration in the rat (6-hydroxydopamine plus quinolinic acid), turning behavior. It counts as in vivo. The note with it: automated recorder. From the text:
Another more recent animal model is the striatonigral degeneration approach in the rat according to G. K. Wenning et al., J. Neural Transm. Suppl., 1999; 55: 103-113. Rats receive an unilateral injection of 6-hydroxydopamine into the left medial forebrain bundle followed by an injection of quinolinic acid into the ipsilateral striatum inducing nigrostriatal degeneration. The degeneration results in turning behavior to a challenge with dopaminomimetics such as apomorphine or amphetamine. Turning behavior is measured by an automated recorder.

For assay [4], the system named is rats with posthypoxic myoclonus. Put plainly: Posthypoxic myoclonus in rats after cardiac arrest. Conditions: after 8 minutes cardiac arrest. It counts as in vivo, rat. Here is the method:
A typical animal model for myoclonus is myoclonus induced by an acute hypoxic episode according to D. D. Truong et al., Mov. Dsiord., 1994; 9: 201-206). In this model of posthypoxic myoclonus, rats undergo a cardiac arrest for 8 minutes and are resuscitated thereafter. Myoclonic jerks occur spontaneously but can be provoked by auditory stimulation, too, worsening over the days following cardiac arrest.

Assay [5] relates to reserpinized rat or mouse. Put plainly: Reserpinized rat or mouse, akinesia in activity meters. It is filed as in vivo. The note with it: 24 h after reserpine. Here is the method:
A typical animal model is the reserpinized rat or mouse (e.g. M. S. Starr and B. S. Starr, J. Neural Transm.—Park. Dis. Dement. Sect., 1994; 7: 133-142; M. Gossel et al., J. Neural Transm.—Park. Dis. Dement. Sect., 1995; 10: 27-39; N. R. Hughes et al., Mov. Disord., 1998; 13: 228-233). Reserpine is a potent depleter of monoamines and produces nearly complete akinesia in both species. Prominent 24 h after application, the distance travelled and the time active is nearly zero as measured in conventional activity meters.

Another assay concerns cataleptic rat. The assay can be described thus: Reversal of catalepsy in rats (oral ED50). It is filed as in vivo. The note with it: result in words. Here is the method:
Extrapyramidal motor side effects in e.g. rodents are measured by the ability of a drug to induce catalepsy. Catalepsy is defined as a state where an animal continues to remain in an unnormal (nonphysiological ‘uncomfortable’) posture for a long time (e.g.: M. E. Stanley and S. D. Glick, Neuropharmacology, 1996; 15: 393-394; C. J. E. Niemegeers and P. Janssen, Life Sci., 1979, […]). For example, if a hindpaw of a rat is placed on an elevated level, e.g. a platform elevated 3 cm above ground level, a normal rat immediately withdraws the hindpaw from the platform to the ground level. A cataleptic rat remains in this unnatural posture even for minutes.

The mark [6] stands for this setting: Abnormal Involuntary Movement Scale.

As for `O=C1c2ccccc2S(=O)(=O)N1CCCCNC[C@H]1CCc2ccccc2O1` [(−)-(R)-2-{4-[[3,4-dihydro-2H-benzopyran-2-yl)-methyl]amino]butyl}-1,2-benzoisothiazol-3-(2H)-on-1,1-dioxide], the “nocturnal akinesia (hypoactivity)” value in the assay on 3-NP treated rats (after four injections of 3-NP (late Huntington's disease)) is “reduced”. Further, the nocturnal hyperactivity result with 3-NP treated rats (after two injections of 3-NP (early Huntington's disease)) was “reduced”. Also, in assay [1], the “muscle tone enhanced by haloperidol” value is reported as “decreased”. In addition, in the assay on Weaver mutant mouse, the locomotor activity result is “enhanced locomotor activity”. In assay [2] (setting [6]), the dystonic dyskinesias result is “reduced” and the overall choreiform dyskinesias result is recorded as “reduced”. In addition, the psychotic states result in assay [2] (rating of attention, reactivity and mobility) was “reduced”. The “Campus Syndrome tremor” value in the assay with Pietrain pig is “reduced disabling tremor when standing and during locomotion”. Moreover, the “severity of dystonic symptoms” value in the assay on mutant dystonic hamster was “dose-dependently reduced”. Further, in [3], the “turning behavior induced by amphetamine” value is recorded as “dose-dependently antagonized” and the “turning behavior induced by apomorphine” value is “dose-dependently antagonized”. Also, in [4], the “number of auditory-evoked myoclonic jerks” value is “dose-dependently reduce” and the “number of spontaneous myoclonic jerks” value was “dose-dependently reduce”. Further, the akinesia entry in [5] is “dose-dependently reduced akinesia”. Besides, the “distance travelled and time active” value in [5] (activity meters) is “restored distance travelled and time active to about the level of normal animals”. In the assay with cataleptic rat, the “potency in reversing catalepsy” value is listed as “extraordinary potency in reversing catalepsy”.
